From publication PMC11271341 (Clinical Pharmacokinetics, 2024)
Like-named read-outs stand apart in the source and are kept apart here.

Tests used:
OCT2/MATE1 = settings: in vitro; pazopanib as OCT1/MATE1 inhibitor (so in the source); cited from earlier work
[1] = Metformin trough plasma concentration; type: in vivo, human; settings: n = 18
[2] = exceeds the glomerular filtration rate; cited from earlier work
[3] = tested on: organic cation transporter 2 (OCT2); settings: in vitro studies; cited from earlier work
[4] = tested on: multidrug and toxin extrusion protein 1 (MATE1); settings: in vitro studies; cited from earlier work
[5] = Trifluridine plasma pharmacokinetics, three-phase crossover study in patients; type: in vivo; settings: human, oral, median Tmax, range over the three phases, phases A, B and C
[6] = cited from earlier work

**Q.** Which “change in cisplatin exposure when combined with pazopanib” value (OCT2/MATE1) does the source give for `N.N.[Cl][Pt][Cl]` [cisplatin] here?
**A.** significant in vitro increase

**Q.** Which “geometric mean Ctrough” value ([1]; metformin 500 mg b.i.d. in combination with trifluridine/tipiracil) does the source give for `CN(C)C(=N)N=C(N)N` [metformin] here?
**A.** 240 ng/mL

**Q.** And the “geometric mean Ctrough” value ([1]; metformin monotherapy (day 14))?
**A.** 150 ng/mL

**Q.** For `N=C1CCCN1Cc1nc(O)nc(O)c1Cl` [tipiracil], which renal clearance [2] is on record?
**A.** ~ 300 mL/min

**Q.** What about the “interaction with OCT2” value [3] of the same molecule?
**A.** substrate and inhibitor

**Q.** And the “interaction with MATE1” value [4]?
**A.** substrate and inhibitor

**Q.** With `O=c1[nH]c(=O)n([C@H]2C[C@H](O)[C@@H](CO)O2)cc1C(F)(F)F` [trifluridine] as the molecule, how does the Tmax [5] read?
**A.** 46.8 to 60 min

**Q.** And the “increase of area under the curve vs normal renal function (≥ 90 mL/min)” value ([6]; mild renal impairment (creatinine clearance between 60 and 89 mL/min))?
**A.** 31%

**Q.** And the “increase of area under the curve vs normal renal function (≥ 90 mL/min)” value ([6]; moderate renal impairment (between 30 and 59 mL/min))?
**A.** 43%
